Experimental data published in ChEMBL document CHEMBL3046378, “3-(6-Chloronicotinyl)-2-nitromethylene-thiazolidine as a New Class of Insecticide Acting against Lepidoptera Species” (1992).
Activity calls are given as the source filed them. The calls are words filed in the database; no cut-off is given here.

Assays:
[1] = test system: Cnaphalocrocis medinalis; experiment: Insecticidal activity against Cnaphalocrocis medinalis measured 5 days after artificial infestation; assay type: functional
[2] = test system: Plutella xylostella; experiment: Insecticidal activity against Plutella xylostella (diamondback moth) measured 5 days after artificial infestation; assay type: functional
[3] = test system: Nephotettix cincticeps; experiment: Insecticidal activity against Nephotettix cincticeps (green rice leafhopper) measured 5 days after artificial infestation; assay type: functional
[4] = test system: Spodoptera litura; experiment: Insecticidal activity against Spodoptera litura measured 5 days after artificial infestation; assay type: functional
[5] = test system: Spodoptera litura; experiment: Insecticidal activity against Spodoptera litura at 1000 ppm measured 5 days after artificial infestation; assay type: functional, organism-based

O=[N+]([O-])C=C1NCCCS1
LC90 [1]: 200 ppm
LC90 [2]: 1000 ppm
LC90 [3]: 8 ppm
LC90 [4]: 40 ppm

O=[N+]([O-])/C=C1\CCCN1Cc1ccc(Cl)nc1
LC90 [3]: 1.6 ppm
LC90 [4]: 200 ppm

O=[N+]([O-])/C=C1\NCCN1Cc1ccc(Cl)nc1
LC90 [1]: 200 ppm
LC90 [2]: 40 ppm
LC90 [3]: 0.32 ppm
LC90 [4]: 8 ppm

O=[N+]([O-])/C=C1\NCCS1 [2-(NITROMETHYLENE)THIAZOLIDINE]
Activity [5]: inactive
LC90 [3]: 1000 ppm

O=[N+]([O-])/N=C1\NCCN1Cc1ccc(Cl)nc1 [IMIDACLOPRID]
LC90 [1]: 200 ppm
LC90 [2]: 200 ppm
LC90 [3]: 0.32 ppm
LC90 [4]: 40 ppm

O=[N+]([O-])/C=C1\OCCN1Cc1ccc(Cl)nc1
LC90 [3]: 8 ppm
LC90 [4]: 1000 ppm

O=[N+]([O-])/N=C1\SCCN1Cc1ccc(Cl)nc1
LC90 [3]: 1.6 ppm
LC90 [4]: 200 ppm

O=[N+]([O-])/N=c1\sccn1Cc1ccc(Cl)nc1
LC90 [3]: 0.32 ppm
LC90 [4]: 1000 ppm

O=[N+]([O-])/C=C1\SCCN1Cc1ccc(Cl)nc1
LC90 [1]: 8 ppm
LC90 [2]: 1.6 ppm
LC90 [3]: 0.32 ppm
LC90 [4]: 1.6 ppm
